IC50 data for 27 compounds are collected here from patent publication US20110034457A1, “Pyridothiophene Compounds” (VERNALIS (CAMBRIDGE) LIMITED., priority 2003, published 2011).

This assay addresses T1, human full-length HSP90 (Homo sapiens, UniProt P08238).
T1 construct: E. coli expressed human full-length HSP90 protein, purified >95%; made in house; host or cells: E. coli
Put plainly: Fluorescence polarization assay (competitive displacement of probe RBT0045864-FAM from HSP90). Type of assay: binding. From the text:
Fluorescence polarization {also known as fluorescence anisotropy} measures the rotation of a fluorescing species in solution, where the larger molecule the more polarized the fluorescence emission. When the fluorophore is excited with polarized light, the emitted light is also polarized. The molecular size is proportional to the polarization of the fluorescence emission.
The fluoroscein-labelled probe—RBT0045864-FAM—
binds to HSP90 {full-length human, full-length yeast or N-terminal domain HSP90} and the anisotropy {rotation of the probe:protein complex} is measured.
Test compound is added to the assay plate, left to equilibrate and the anisotropy measured again. Any change in anisotropy is due to competitive binding of compound to HSP90, thereby releasing probe.
Stored at room temperature. • 3) BSA (bovine serum albumen) 10 mg/ml (New England Biolabs # B9001S) • 4) 20 mM probe in 100% DMSO stock concentration. Stored in the dark at RT. Working concentration is 200 nM diluted in AR water and stored at 4° C.
• 1) Add 100 μl 1× buffer to wells 11A and 12A (=FP BLNK) • 2) Prepare assay mix—all reagents are kept on ice with a lid on the bucket as the probe is light-sensitive.
• 3) Aliquot 100 μl assay mix to all other wells • 4) Seal plate and leave in dark at room temp for 20 minutes to equilibrate
This gives 2.5 mM {50×} stock cpd—assuming cpds 20 mM. • 4) Repeat for wells A2 to A10. Control in columns 11 and 12. • 5) Transfer 5 μl from row A to row B—not column 12. Mix well. • 6) Transfer 5 μl from row B to row C. […] Add 2 μl of 100 mM standard cpd to wells B12-H12 {is positive control} • 13) The Z′ factor is calculated from zero controls and positive wells.

The mark [1] stands for this setting: fluorescence polarisation, E. coli expressed human full-length HSP90 200 nM, probe 80 nM, read-out: Hsp90 FP IC50.

Read-outs that look alike come from different tables or passages of the source.

T1 sequence (P08238 whole entry): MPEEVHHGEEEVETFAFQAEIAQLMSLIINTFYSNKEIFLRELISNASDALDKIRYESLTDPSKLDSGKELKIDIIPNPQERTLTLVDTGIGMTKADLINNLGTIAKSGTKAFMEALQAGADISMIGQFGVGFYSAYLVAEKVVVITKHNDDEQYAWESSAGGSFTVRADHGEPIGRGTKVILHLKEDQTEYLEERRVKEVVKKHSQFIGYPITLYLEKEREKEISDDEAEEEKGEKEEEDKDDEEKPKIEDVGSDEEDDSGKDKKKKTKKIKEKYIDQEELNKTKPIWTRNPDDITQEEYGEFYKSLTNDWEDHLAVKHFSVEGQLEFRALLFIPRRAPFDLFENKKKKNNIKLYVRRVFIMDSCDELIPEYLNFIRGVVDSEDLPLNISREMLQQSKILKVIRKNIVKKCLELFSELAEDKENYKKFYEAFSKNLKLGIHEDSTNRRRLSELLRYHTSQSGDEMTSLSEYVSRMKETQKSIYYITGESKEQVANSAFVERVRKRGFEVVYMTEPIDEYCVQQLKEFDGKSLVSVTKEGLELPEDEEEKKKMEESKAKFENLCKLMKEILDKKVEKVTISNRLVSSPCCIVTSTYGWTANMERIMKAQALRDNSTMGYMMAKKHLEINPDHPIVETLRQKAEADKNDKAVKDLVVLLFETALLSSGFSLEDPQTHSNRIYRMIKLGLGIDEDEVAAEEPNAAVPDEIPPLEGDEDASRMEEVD

On to `CC(C)c1ccc(-c2c(C#N)c(N)nc3sc(C(N)=O)c(N)c23)cc1` [Example 6], for which the 50% inhibitory concentration (IC50) (in general, the point on the concentration scale where inhibition reaches its midpoint) under setting [1] was under 10 µM.

Turning to `N#Cc1c(N)nc2sc(C(=O)NCCO)c(N)c2c1-c1ccccc1` [Example 24], under setting [1], the half-maximal inhibitory concentration (IC50) is over 10 µM.

For `CCNC(=O)c1sc2nc(N)c(C#N)c(-c3ccccc3)c2c1N` [Example 1, 3,6-Diamino-5-cyano-4-phenyl-thieno[2,3-b]pyridine-2-carboxylic acid ethylamide], the IC50 under setting [1] was under 10 µM.

For `CC(C)c1ccc(-c2c(C#N)c(N)nc3sc(C(=O)Nc4nccs4)c(N)c23)cc1` [Example 5], the IC50 under setting [1] is over 10 µM.

Turning to `N#Cc1c(N)nc2sc(C(=O)N3CCOCC3)c(N)c2c1-c1ccccc1` [Example 20], the 50% inhibitory concentration (IC50) under setting [1] is over 10 µM.

On to `N#Cc1c(N)nc2sc(C(N)=O)c(N)c2c1-c1ccc(Br)cc1` [Example 4], for which, under setting [1], the IC50 was over 10 µM.

For the compound `COc1cccc(NC(=O)c2sc3nc(N)c(C#N)c(-c4ccc(C(C)C)cc4)c3c2N)c1` [Example 3], under setting [1], the IC50 is over 10 µM.

Regarding `CN1CCN(CCCNC(=O)c2sc3nc(N)c(C#N)c(-c4ccccc4)c3c2N)CC1` [Example 18], the IC50 under setting [1] is over 10 µM.

`Cc1ccccc1NC(=O)c1sc2nc(N)c(C#N)c(-c3ccc(C(C)C)cc3)c2c1N` [Example 2]: under setting [1], the IC50 was over 10 µM.

Turning to `N#Cc1c(N)nc2sc(C(=O)NCCN3CCOCC3)c(N)c2c1-c1ccccc1` [Example 21], the IC50 under setting [1] is over 10 µM.

Take `N#Cc1c(N)nc2sc(C(=O)NCc3ccccc3)c(N)c2c1-c1ccccc1` [Example 12]: under setting [1], the concentration for half-maximal inhibition (IC50) was over 10 µM.

As to `CN(C)CCNC(=O)c1sc2nc(N)c(C#N)c(-c3ccccc3)c2c1N` [Example 23], under setting [1], the IC50 is over 10 µM.

For `CNC(=O)c1sc2nc(N)c(C#N)c(-c3ccccc3)c2c1N` [Example 14], the half-inhibitory concentration (IC50) under setting [1] was under 10 µM.

As for `N#Cc1c(N)nc2sc(C(N)=O)c(N)c2c1-c1ccccc1` [Example 25], the IC50 under setting [1] is over 10 µM.

As for `N#Cc1c(N)nc2sc(C(N)=O)c(N)c2c1-c1ccc(Cl)cc1` [Example 7], the IC50 under setting [1] is under 10 µM.

Turning to `CC(C)NC(=O)c1sc2nc(N)c(C#N)c(-c3ccccc3)c2c1N` [Example 11], the IC50 under setting [1] was over 10 µM.

For the compound `COC(=O)c1sc2nc(N)c(C#N)c(-c3ccc(OC(C)C)cc3)c2c1N` [Example 27], the IC50 under setting [1] is over 10 µM.

Regarding `CCN(CC)C(=O)c1sc2nc(N)c(C#N)c(-c3ccccc3)c2c1N` [Example 13], the IC50 under setting [1] is over 10 µM.

Take `N#Cc1c(N)nc2sc(C(=O)Nc3ccccc3)c(N)c2c1-c1ccc(Br)cc1` [Example 9]: the IC50 under setting [1] is over 10 µM.

As for `N#Cc1c(N)nc2sc(C(=O)NCC(N)=O)c(N)c2c1-c1ccccc1` [Example 22], the IC50 under setting [1] is under 10 µM.

On to `COC(=O)CNC(=O)c1sc2nc(N)c(C#N)c(-c3ccccc3)c2c1N` [Example 15], for which, under setting [1], the IC50 is under 10 µM.

In the case of `N#Cc1c(N)nc2sc(C(=O)NCCN)c(N)c2c1-c1ccccc1` [Example 26], the IC50 under setting [1] was over 10 µM.

For `COc1ccc(-c2c(C#N)c(N)nc3sc(C(N)=O)c(N)c23)cc1OC` [Example 10], the IC50 under setting [1] is over 10 µM.

`CCOc1ccc(-c2c(C#N)c(N)nc3sc(C(N)=O)c(N)c23)cc1` [Example 8] registered an IC50 of under 10 µM.

On to `N#Cc1c(N)nc2sc(C(=O)NCCCN3CCOCC3)c(N)c2c1-c1ccccc1` [Example 19], for which the IC50 under setting [1] is over 10 µM.

Take `CN1CCN(C(=O)c2sc3nc(N)c(C#N)c(-c4ccccc4)c3c2N)CC1` [Example 16]: under setting [1], the IC50 was over 10 µM.

Consider `CN(C)CCCNC(=O)c1sc2nc(N)c(C#N)c(-c3ccccc3)c2c1N` [Example 17], for which the IC50 under setting [1] was over 10 µM.
